According to patent publication US20260364214A1, “MULTIVALENT FIBROBLAST ACTIVATION PROTEIN LIGANDS FOR TARGETED DELIVERY APPLICATIONS” (Philochem AG, priority 2022, published 2026):

Experiments:
SK-RC-52.hFAP tumors [1] = test: Therapeutic efficacy in SK-RC-52.hFAP tumor bearing mice; format: in vivo, mouse (athymic Balb/c AnNRj-Foxn1); details: single administration, 250 nmol/kg, 250 MBq/kg
Description: SK-RC-52.hFAP were grown to 80% confluence in RPMI-1640 with 10% fetal bovine serum (FBS) and 1% antibiotic-antimycotic and detached with Trypsin-EDTA (ethylenediaminetetraacetic acid) 0.05%. Tumor cells were resuspended in Hanks' Balanced Salt Solution medium. Aliquots of 5 million cells (100 μL of suspension) were injected subcutaneously in the right flank of female athymic Balb/c AnNRj-Foxn1 mice (6 to 8 wk of age).
Prior to the therapy studies, precursors (25 nmol) were dissolved in 25 μL of milliQ water, then sodium acetate buffer (75 μL, 1 M in water) and 25, 75 or 150 MBq of ^177Lu solution were added. The mixture was heated at 90 °C for 1 minutes followed by dilution with 400 μL of PBS to afford a final volume of 500 μL (5 doses of 100 μL each). […]
The anti-cancer efficacy of ^177Lu-ESV6, ^177Lu-Bi-ESV6 and ^177Lu-Tri-ESV6 was assessed in athymic Balb/c AnNRj-Foxn1 mice bearing SK-RC-52.hFAP tumor in the right flank. ^177Lu-ESV6, ^177Lu-Bi-ESV6 or ^177Lu-Tri-ESV6 were intravenously administered at a dose of 250 nmol/kg, 250 MBq/kg (single administration on day 9 after tumor implantation). […] Body weight of the animals and tumor volume were daily measured and recorded. Tumor dimensions were measured with an electronic caliper and tumor volume was calculated with the formula (long side, mm)×(short side, mm)×(short side, mm)×0.5. […]

[2] = Determination of Log D7.4 (1-octanol/PBS); format: physicochemical; details: 1-octanol/PBS pH 7.4; 177Lu-labeled
Description: The lipophilicity of ^177Lu-ESV6, ^177Lu-Bi-ESV6, ^177Lu-Tri-ESV6 and ^177Lu-FAP-2286 was determined as follows. 100 μL aliquots of the radioligand (~1 MBq) in PBS buffer were added to PBS buffer (500 μL, pH 7.4) and 1-octanol (600 μL). The two-layer mixture were vigorously shaken for 10 minutes on a vortex mixer and then centrifuged at 700 rpm for 5 min to facilitate the separation. 100 μL aliquots of both layers were measured in a Packard Cobra Gamma Counter and the partition coefficient was determined by dividing cpm (octanol) by cpm (PBS) and indicated as Log D7.4. • Log D7.4 (^177Lu-ESV6): −4.13 • Log D7.4 (^177Lu-Bi-ESV6): −3.75 • Log D7.4 (^177Lu-Tri-ESV6): −3.10 • Log D7.4 (^177Lu-FAP-2286): −3.05

SK-RC-52.hFAP tumors [3] = test: Therapeutic efficacy, schedule optimization for combination with L19-IL2; format: in vivo, mouse (athymic Balb/c AnNRj-Foxn1); details: 5 MBq/mouse on day 7
Description: The anti-cancer efficacy was assessed in athymic Balb/c AnNRj-Foxn1 mice bearing SK-RC-52.hFAP tumor in the right flank. Therapy experiments started when the average volume of established tumors had reached 100-150 mm^3. Body weight of the animals and tumor volume were daily measured and recorded. Tumor dimensions were measured with an electronic caliper and tumor volume was calculated with the formula (long side, mm)×(short side, mm)×(short side, mm)×0.5. Animals were euthanized when one or more termination criterium indicated by the experimental license was reached. Prism 7 software (GraphPad Software) was used for data analysis. Different groups were treated with (i) L19-IL2 as single agent at a dose of 0.05 mg/mouse on day 8,10 and 12, (ii) ^177Lu-Tri-ESV6 as single agent at a dose of 5 MBq/mouse on day 7 (iii) ^177Lu-Tri-ESV6+L19-IL2 combination (^177Lu-Tri-ESV6 at a dose of 5 MBq/mouse on day 7 followed by three administrations of L19-IL2 at a dose 0.05 mg/mouse on day 8, 10 and 12—SCHEDULE 1—, or by three administrations of L19-IL2 at a dose 0.05 mg/mouse on day 12, 17 and 22—SCHEDULE 2—, or by a single administration of L19-IL2 at a dose 0.05 mg/mouse on day 8—SCHEDULE 3—, or by a single administration of L19-IL2 at a dose 0.05 mg/mouse on day 12—SCHEDULE 4—or (iv) saline […].

SMILES | therapeutic activity (tumor volume), in words (SK-RC-52.hFAP tumors [1]) | Log D7.4 [2] | therapeutic activity, in words (SK-RC-52.hFAP tumors [3])
N#C[C@@H]1CC(F)(F)CN1C(=O)CNC(=O)c1ccnc2c(NC(=O)CCC(=O)NCCNC(=O)CCOCC(COCCC(=O)NCCNC(=O)CCC(=O)Nc3cccc4c(C(=O)NCC(=O)N5CC(F)(F)C[C@H]5C#N)ccnc34)(COCCC(=O)NCCNC(=O)CCC(=O)Nc3cccc4c(C(=O)NCC(=O)N5CC(F)(F)C[C@H]5C#N)ccnc34)NC(=O)CCC(C(=O)O)N3CCN(CC(=O)O)CCN(CC(=O)O)CCN(CC(=O)O)CC3)cccc12 (stereo partly drawn) [Tri-ESV6-DOTAGA, 2,2′,2″-(10-(19-carboxy-1-((4-((2-((S)-2-cyano-4,4-difluoropyrrolidin-1-yl)-2-oxoethyl)carbamoyl)quinolin-8-yl)amino)-14,14-bis((3-((2-(4-((4-((2-((S)-2-cyano-4,4-difluoropyrrolidin-1-yl)-2-oxoethyl)carbamoyl)quinolin-8-yl)amino)-4-oxobutanamido)ethyl)amino)-3-oxopropoxy)methyl)-1,4,9,16-tetraoxo-12-oxa-5,8,15-triazanonadecan-19-yl)-1,4,7,10-tetraazacyclododecane-1,4,7-triyl)triacetic acid] | remarkable therapeutic activity |  | 
N#CC1CC(F)(F)CN1C(=O)CNC(=O)c1ccnc2c(NC(=O)CCC(=O)NCCCCC(NC(=O)CCC(=O)Nc3cccc4c(C(=O)NCC(=O)N5CC(F)(F)CC5C#N)ccnc34)C(=O)NCCNC(=O)CCC(C(=O)O)N3CCN(CC(=O)[O-])CCN(CC(=O)[O-])CCN(CC(=O)[O-])CC3)cccc12.[177Lu+3] (centres unmarked) [^177Lu-Bi-ESV6-DOTAGA, reference compound] |  | −3.75 | 
N#C[C@@H]1CC(F)(F)CN1C(=O)CNC(=O)c1ccnc2c(NC(=O)CCC(=O)NCCNC(=O)CCC(C(=O)O)N3CCN(CC(=O)[O-])CCN(CC(=O)[O-])CCN(CC(=O)[O-])CC3)cccc12.[177Lu+3] (some centres unmarked) [^177Lu-ESV6-DOTAGA, reference compound] |  | −4.13 | 
N#CC1CC(F)(F)CN1C(=O)CNC(=O)c1ccnc2c(NC(=O)CCC(=O)NCCNC(=O)CCOCC(COCCC(=O)NCCNC(=O)CCC(=O)Nc3cccc4c(C(=O)NCC(=O)N5CC(F)(F)CC5C#N)ccnc34)(COCCC(=O)NCCNC(=O)CCC(=O)Nc3cccc4c(C(=O)NCC(=O)N5CC(F)(F)CC5C#N)ccnc34)NC(=O)CCC(C(=O)O)N3CCN(CC(=O)[O-])CCN(CC(=O)[O-])CCN(CC(=O)[O-])CC3)cccc12.[177Lu+3] (centres unmarked) [^177Lu-Tri-ESV6-DOTAGA] |  | −3.10 | dose-dependent therapeutic activity
